Measurements published in patent publication US20080171051A1, “Cancer Treatment” (priority 2003, published 2008).

Legend:
MCF-7 cells = format: cell-based; conditions: alone or in combination with 5-FU (data not shown)
Procedure: Cell Viability Assays. […] To assess chemotherapy/siRNA interactions, 20,000-50,000 cells were seeded per well on 24-well plates. Twenty-four hours later, the cells were transfected with FLIP-targeted (FT) or scrambled siRNA (SC). Four hours after transfection, the cells were treated with a range of concentrations of each drug for a further 72-96 hours. MTT (0.5 mg/ml) was added to each well and the cells were incubated at 37° C. for a further 2 hours. […] FLIP-targeted siRNA was designed using the Ambion siRNA target finder and design tool (www.ambion.com/techlib/misc/siRNA_finder.html) to inhibit both splice variants of c-FLIP. Both c-FLIP-targeted (FT) and scrambled control (SC) siRNA were obtained from Xeragon (Germantown, Md.). The FT siRNA sequence used was: [NT] The FL siRNA sequence used was: [NT] The control non-silencing siRNA sequence (SC) used was: [NT] siRNA transfections were performed on sub-confluent cells incubated in Optimem medium using the oligofectamine reagent (both from Life Technologies Inc) according to the manufacturer's instructions.

HCT116p53+/+ cells [1] = assay: MTT cell viability assay, HCT116 p53 wild type cells; format: cell-based, human; conditions: for effect on cell viability: HCT116 cells, presence or absence of drug; for IC60(72h) dose: HCT116p53+/+ cells; for synergy with CH-11 (RI from MTT): HCT116 p53 wild-type, drug 24 hours then CH-11 200 ng/ml for 48 hours
Procedure: (§1) Cell Viability Assays. […] To investigate drug-induced Fas-mediated apoptosis, cells were seeded at 2,000-5,000 cells per well on 96-well plates. […] To assess chemotherapy/siRNA interactions, 20,000-50,000 cells were seeded per well on 24-well plates. Twenty-four hours later, the cells were transfected with FLIP-targeted (FT) or scrambled siRNA (SC). […] MTT (0.5 mg/ml) was added to each well and the cells were incubated at 37° C. for a further 2 hours. The culture medium was removed and formazan crystals reabsorbed in 200 μl (96-well) or 1 ml (24-well) DMSO. Cell viability was determined by reading the absorbance of each well at 570 nm using a microplate reader (Molecular Devices, Wokingham, England).
(§2) siRNA transfections. FLIP-targeted siRNA was designed using the Ambion siRNA target finder and design tool (www.ambion.com/techlib/misc/siRNA_finder.html) to inhibit both splice variants of c-FLIP. Both c-FLIP-targeted (FT) and scrambled control (SC) siRNA were obtained from Xeragon (Germantown, Md.).
(§3) Statistical Analyses. The nature of the interaction between the chemotherapeutic drugs and FLIP-targeted siRNAs was determined by calculating the combination index (CI) according to the method of Chou and Talalay (14). CI values were calculated from isobolograms generated using the CalcuSyn software programme (Microsoft Windows). […] An unpaired two-tailed t test was used to determine the significance of changes in levels of apoptosis between different treatment groups.

HCT116p53+/+ cells [2] = assay: Flow cytometric analysis of apoptosis, HCT116p53+/+ cells; format: cell-based, human; conditions: for cells in the sub-G0/G1 apoptotic fraction: 0.5 nM siRNA, no drug, 5 μM 5-FU or 1 μM oxaliplatin for 48 hours
Procedure: (§4) Flow Cytometric Analysis. Cells were seeded at 1×10^5 per well of a 6-well tissue culture plate. […] DNA content of harvested cells was evaluated after propidium iodide staining of cells using the EPICS XL Flow Cytometer (Coulter, Miami, Fla.).
(§5) siRNA transfections. FLIP-targeted siRNA was designed using the Ambion siRNA target finder and design tool (www.ambion.com/techlib/misc/siRNA_finder.html) to inhibit both splice variants of c-FLIP. Both c-FLIP-targeted (FT) and scrambled control (SC) siRNA were obtained from Xeragon (Germantown, Md.). The FT siRNA sequence used was: […]. The FL siRNA sequence used was: […]. The control non-silencing siRNA sequence (SC) used was: […]. siRNA transfections were performed on sub-confluent cells incubated in Optimem medium using the oligofectamine reagent (both from Life Technologies Inc) according to the manufacturer's instructions.

HCT116p53-/- cells [3] = assay: Flow cytometric analysis of apoptosis, HCT116p53-/- cells; format: cell-based, human; conditions: for cells in the sub-G0/G1 fraction (apoptosis): HCT116p53-/- cells, 1 nM siRNA, no drug, 5 μM 5-FU, 5 μM oxaliplatin or 1 μM CPT-11, 72 hours
Procedure: as §4, §5

HCT116p53-/- cells [4] = assay: MTT cell viability assay, HCT116 p53 null cells; format: cell-based, human; conditions: for synergy with CH-11 (RI from MTT): HCT116 p53 null, drug 24 hours then CH-11 200 ng/ml for 48 hours
Procedure: as §1, §2, §3

RKO cells = assay: MTT cell viability assay, RKO cells; format: cell-based; conditions: absence of chemotherapy, read-out: IC50(72h) dose
Procedure: as §1, §2
(§6) Statistical Analyses. The nature of the interaction between the chemotherapeutic drugs and FLIP-targeted siRNAs was determined by calculating the combination index (CI) according to the method of Chou and Talalay (14). CI values were calculated from isobolograms generated using the CalcuSyn software programme (Microsoft Windows). […]

H630 cells = assay: MTT cell viability assay, H630 cells; format: cell-based; conditions: absence of chemotherapy, read-out: IC50(72h) dose
Procedure: as §1, §2, §6

c-FLIP [5] = assay: Western blot of c-FLIP expression after siRNA transfection, HCT116p53+/+ cells; format: cell-based, human; conditions: for down-regulation of c-FLIP expression: nanomolar concentrations
Procedure: (§7) Western Blotting. Western blots were performed as previously described (Longley et al., 2002). The Fas/CD95, Bcl-2 and BID (Santa Cruz Biotechnology, Santa Cruz, Calif.), caspase 8 (Oncogene Research Products, Darmstadt, Germany), PARP (Pharmingen, BD Biosciences, Oxford, England), c-FLIP (NF-6, Alexis, Bingham UK) DcR3 (Imgenex, San Diego, Calif.) mouse monoclonal antibodies were used in conjunction with a horseradish peroxidase (HRP)-conjugated sheep anti-mouse secondary antibody (Amersham, Little Chalfont, Buckinghamshire, England). FasL rabbit polyclonal antibody (Santa Cruz Biotechnology) was used in conjunction with an HRP-conjugated donkey anti-rabbit secondary antibody (Amersham). Equal loading was assessed using a β-tubulin mouse monoclonal primary antibody (Sigma).
siRNA transfections. FLIP-targeted siRNA was designed using the Ambion siRNA target finder and design tool (www.ambion.com/techlib/misc/siRNA_finder.html) to inhibit both splice variants of c-FLIP. Both c-FLIP-targeted (FT) and scrambled control (SC) siRNA were obtained from Xeragon (Germantown, Md.). The FT siRNA sequence used was: AAGCAGTCTGTTCAAGGAGCA. The FL siRNA sequence used was: AAGGAACAGCTTGGCGCTCAA. The control non-silencing siRNA sequence (SC) used was: AATTCTCCGAACGTGTCACGT. siRNA transfections were performed on sub-confluent cells incubated in Optimem medium using the oligofectamine reagent (both from Life Technologies Inc) according to the manufacturer's instructions.

c-FLIP [6] = assay: Western blot of c-FLIP expression after siRNA transfection, MCF-7 cells; format: cell-based; conditions: 10 nM FT siRNA
Procedure: as §7
(§8) siRNA transfections. FLIP-targeted siRNA was designed using the Ambion siRNA target finder and design tool (www.ambion.com/techlib/misc/siRNA_finder.html) to inhibit both splice variants of c-FLIP. Both c-FLIP-targeted (FT) and scrambled control (SC) siRNA were obtained from Xeragon (Germantown, Md.). The FT siRNA sequence used was: AAGCAGTCTGTTCAAGGAGCA. The FL siRNA sequence used was: AAGGAACAGCTTGGCGCTCAA. […]

c-FLIP [7] = assay: Western blot of c-FLIP expression after siRNA transfection, HCT116p53-/- cells; format: cell-based, human; conditions: 1 nM FT siRNA
Procedure: as §7, §8

c-FLIP [8] = assay: Western blot of c-FLIP expression after siRNA transfection, RKO cells; format: cell-based; conditions: 1 nM, 24 hours
Procedure: as §7, §8

c-FLIP [9] = assay: Western blot of c-FLIP expression after siRNA transfection, H630 cells; format: cell-based; conditions: 1 nM, 24 hours
Procedure: as §7, §8

HLacZ cell line = assay: Flow cytometric analysis of apoptosis, HLacZ control cell line; format: cell-based, human; conditions: 5 μM 5-FU for 72 hours
Procedure: (§9) Generation of c-FLIP overexpressing cell lines. c-FLIPL and c-FLIPS coding regions were PCR amplified and ligated into the pcDNA/V5-His TOPO vector according to the manufacturer's instructions (Life Technologies Inc.). HCT116p53^+/+ cells were co-transfected with 10 μg of each c-FLIP expression construct and 1 μg of a construct expressing a puromycin resistance gene (pIRESpuro3, Clontech) using GeneJuice. Stably transfected HCT116 cells were selected and maintained in medium supplemented with 1 μg/ml puromycin (Life Technologies Inc.). Stable overexpression of c-FLIP was assessed by Western blot analysis.
as §4

HFL17 cells = assay: Flow cytometric analysis of apoptosis, HFL17 cells (c-FLIPL-overexpressing HCT116); format: cell-based, human; conditions: 5 μM 5-FU for 72 hours
Procedure: as §9, §4

HFL24 cells = assay: Flow cytometric analysis of apoptosis, HFL24 cells (c-FLIPL-overexpressing HCT116); format: cell-based, human; conditions: 5 μM 5-FU for 72 hours
Procedure: as §9, §4

Fas = assay: Western blot analysis of Fas expression in MCF-7 cells; format: cell-based; conditions: 72 hours after IC60 dose
Procedure: as §7

[10] = patients with metastatic colorectal cancer; cited from earlier work
[11] = adjuvant setting of colorectal cancer; cited from earlier work
Fas death receptor = Fas death receptor (UniProt P25445); assay: cell-based or functional assay
Chain of Fas death receptor (P25445 26-335 limits assumed): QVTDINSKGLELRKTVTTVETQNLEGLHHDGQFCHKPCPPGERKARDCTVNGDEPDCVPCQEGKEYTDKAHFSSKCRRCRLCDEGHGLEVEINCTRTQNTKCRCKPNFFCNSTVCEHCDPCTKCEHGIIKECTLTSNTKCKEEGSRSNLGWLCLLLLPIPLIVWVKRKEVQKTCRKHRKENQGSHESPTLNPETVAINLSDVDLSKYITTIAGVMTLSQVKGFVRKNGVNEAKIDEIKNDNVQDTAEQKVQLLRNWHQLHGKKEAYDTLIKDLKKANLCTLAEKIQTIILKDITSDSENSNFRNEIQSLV

[12] = tested on: c-FLIPL-overexpressing HCT116p53+/+ cell lines (HFL17, HFL24); assay: Growth inhibition (MTT) in c-FLIPL-overexpressing HCT116p53+/+ cell lines versus HLacZ; format: cell-based, human
Procedure: as §1

## SC siRNA: control non-silencing siRNA; sequence AATTCTCCGAACGTGTCACGT (AATTCTCCGAACGTGTCACGT; chemistry not given here)
MCF-7 cells
  effect on cell viability: no effect on cell viability
HCT116p53+/+ cells [1]
  effect on cell viability: no significant effect on cell viability
HCT116p53+/+ cells [1]; listed as Control siRNA
  effect on cell viability: no effect on cell viability
HCT116p53+/+ cells [2]
  cells in the sub-G0/G1 apoptotic fraction: ~9%
HCT116p53-/- cells [3]
  cells in the sub-G0/G1 fraction (apoptosis): ~9%

## FT siRNA: siRNA inhibiting both splice variants of c-FLIP; sequence AAGCAGTCTGTTCAAGGAGCA (AAGCAGTCTGTTCAAGGAGCA; chemistry not given here)
HCT116p53+/+ cells [1]; HCT116 p53 wild type cells, absence of chemotherapy, read-out: IC50(72h) dose
  IC50: ~0.7 nM
HCT116p53-/- cells [4]; HCT116 p53 null cells, absence of chemotherapy, read-out: IC50(72h) dose
  IC50: ~2.5 nM
RKO cells
  IC50: ~5 nM
H630 cells
  IC50: ~25 nM
HCT116p53+/+ cells [2]
  cells in the sub-G0/G1 apoptotic fraction: ~26%
HCT116p53-/- cells [3]
  cells in the sub-G0/G1 fraction (apoptosis): ~14%
c-FLIP [5]
  down-regulation of c-FLIP expression: potently down-regulated expression of both c-FLIP splice variants
c-FLIP [5]; post-transfection, 1 and 10 nM FT siRNA
  time at which both c-FLIP splice forms were efficiently down-regulated: 8 h
c-FLIP [6]
  down-regulation of c-FLIP expression: potently down-regulated expression of both c-FLIP splice variants
c-FLIP [7]
  down-regulation of c-FLIP expression: effectively down-regulated
c-FLIP [8]
  down-regulation of c-FLIP protein: down-regulated c-FLIP protein
c-FLIP [9]
  down-regulation of c-FLIP protein: down-regulated c-FLIP protein

## O=c1[nH]cc(F)c(=O)[nH]1 [5-FU]
HCT116p53+/+ cells [1]
  IC60(72h) dose: 5000 nM
HLacZ cell line
  cells in the sub-G1/G0 apoptotic fraction: ~41%
HFL17 cells
  cells in the sub-G1/G0 apoptotic fraction: ~15%
HFL24 cells
  cells in the sub-G1/G0 apoptotic fraction: ~17%
Fas
  up-regulation of Fas expression: ~12 fold
[10]
  response rates: 10-15%

## FL siRNA: siRNA specifically down-regulating c-FLIPL; sequence AAGGAACAGCTTGGCGCTCAA (AAGGAACAGCTTGGCGCTCAA; listed as DNA, chemistry not given here)
HCT116p53+/+ cells [2]; PARP cleavage and flow cytometry (data not shown)
  apoptosis in the absence of chemotherapy: induced apoptosis
c-FLIP [5]
  down-regulation of c-FLIP expression: specifically down-regulate the long splice form without affecting expression of c-FLIPS

## 5-FU/leucovorin
[11]
  3-year survival: 72.9%

## agonistic Fas monoclonal antibody CH-11
Fas death receptor
  cells in the sub-G1/G0 apoptotic phase (flow cytometry, MCF-7, 5-FU 72 h then 250 ng/ml CH-11 24 h): 55%
  cells in the sub-G1/G0 apoptotic phase (flow cytometry, MCF-7, OXA then CH-11): 50%
  cells in the sub-G1/G0 apoptotic phase (flow cytometry, MCF-7, TDX 72 h then 250 ng/ml CH-11 24 h): 60%

## CCc1c2c(nc3ccc(OC(=O)N4CCC(N5CCCCC5)CC4)cc13)-c1cc3c(c(=O)n1C2)COC(=O)[C@]3(O)CC [CPT-11, irinotecan]
HCT116p53+/+ cells [1]
  synergy with CH-11 (RI from MTT): significant synergy
HCT116p53-/- cells [4]
  synergy with CH-11 (RI from MTT): synergy
HCT116p53-/- cells [3]; HCT116 p53 null, drug 24 hours then CH-11 50 ng/ml 24 hours
  synergy with CH-11 (propidium iodide staining): significant synergy

## Cc1nc2ccc(CN(C)c3ccc(C(=O)N[C@@H](CCC(=O)O)C(=O)O)s3)cc2c(=O)[nH]1 [TDX, tomudex]
HCT116p53+/+ cells [1]
  synergy with CH-11 (RI from MTT): significant synergy
HCT116p53-/- cells [4]
  synergy with CH-11 (RI from MTT): synergy
Fas
  up-regulation of Fas expression: ~7 fold

## O=C1[O][Pt]2([NH][C@@H]3CCCC[C@H]3[NH]2)[O]C1=O [OXA, oxaliplatin]
HCT116p53+/+ cells [1]
  IC60(72h) dose: 1000 nM
[12]
  increase in the IC50(72h) dose caused by c-FLIPL overexpression: 1.7-2.0 fold
